Source: patent US4711877A, “6-pen-vasopressin compounds” (SmithKline Beckman Corporation, priority 1985, dated 1987)
Positions of bridges follow the written chain, without caps; N, C: chain ends. Non-standard residues stand in square brackets, D forms with d. Residues, ends and D or L forms follow the SMILES beside them. Pen = CC(C)(S)[C@H](N)C(=O)O; Mpa = O=C(O)CCS

Tests used:
[1] = biological target: T1, vasopressin receptor sites (Sus scrofa, UniProt P32307); assay: Binding activity in hog tissue (KB), protocol of Stassen et al.
T1 construct: from tissue; renal medulla by own knowledge of the cited protocol
Description: (§1) The binding activity in hog and rat liver tissue, as well as the antagonistic activity in the hydropenic rat, of the compounds according to this invention is illustrated by the following results which were obtained using testing protocols which are described in the literature [F. Stassen, J. Pharmacology and Experimental Therapeutics, 223 50 (1982)]: […]

[2] = biological target: T2, vasopressin receptor sites (Rattus norvegicus, UniProt P30560); assay: Binding activity in rat liver tissue (KB), protocol of Stassen et al.
T2 construct: from tissue; host or cells: rat liver tissue
Description: as §1

T1 sequence (P32307 whole entry): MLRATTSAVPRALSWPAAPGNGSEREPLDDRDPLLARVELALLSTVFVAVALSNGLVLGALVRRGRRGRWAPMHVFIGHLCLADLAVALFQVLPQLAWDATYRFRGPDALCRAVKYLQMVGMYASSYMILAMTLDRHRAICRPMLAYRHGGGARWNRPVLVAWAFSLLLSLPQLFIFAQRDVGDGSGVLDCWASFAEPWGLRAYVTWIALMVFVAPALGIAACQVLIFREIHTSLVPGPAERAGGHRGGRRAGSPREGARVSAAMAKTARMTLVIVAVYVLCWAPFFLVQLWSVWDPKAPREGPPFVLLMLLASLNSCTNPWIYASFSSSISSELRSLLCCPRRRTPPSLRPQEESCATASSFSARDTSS
T2 sequence (P30560 whole entry): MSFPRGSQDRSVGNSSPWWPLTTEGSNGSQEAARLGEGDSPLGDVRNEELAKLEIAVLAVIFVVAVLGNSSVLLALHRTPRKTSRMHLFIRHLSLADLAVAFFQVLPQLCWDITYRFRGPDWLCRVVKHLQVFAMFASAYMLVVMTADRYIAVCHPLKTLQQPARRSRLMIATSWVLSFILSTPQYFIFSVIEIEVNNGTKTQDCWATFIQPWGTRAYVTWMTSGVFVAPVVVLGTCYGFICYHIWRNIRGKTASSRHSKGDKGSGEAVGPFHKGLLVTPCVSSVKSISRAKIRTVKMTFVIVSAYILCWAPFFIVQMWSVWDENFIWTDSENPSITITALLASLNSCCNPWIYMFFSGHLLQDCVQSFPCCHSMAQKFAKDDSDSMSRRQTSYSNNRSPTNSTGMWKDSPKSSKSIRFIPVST

Row | Kb [1] [nM] | Kb [2] [nM] | SMILES
1 | 9900 |  | CCOc1ccc(C[C@H]2NC(=O)CCSSC[C@@H](C(=O)N3CCC[C@H]3C(=O)N[C@@H](CCCNC(=N)N)C(=O)NCC(N)=O)NC(=O)[C@H](CC(N)=O)NC(=O)[C@H](C(C)C)NC(=O)[C@H](Cc3ccccc3)NC2=O)cc1 [Compound B, Mpr--D-Tyr(Et)--Phe--Val--Asn--Cys--Pro--Arg--Gly(NH2), reference compound] ([Mpa][dY](Et)FVNCPRG-NH2; disulfide 1-6)
2 | 190 | 110 | CCOc1ccc(C[C@H]2NC(=O)CCSSC(C)(C)[C@@H](C(=O)N3CCC[C@H]3C(=O)N[C@@H](CCCNC(=N)N)C(=O)NCC(N)=O)NC(=O)[C@H](CC(N)=O)NC(=O)[C@H](C(C)C)NC(=O)[C@H](Cc3ccccc3)NC2=O)cc1 [Compound A, Mpr--D-Tyr(Et)--Phe--Val--Asn--Pen--Pro--Arg--Gly(NH2)] ([Mpa][dY](Et)FVN[Pen]PRG-NH2; disulfide 1-6)
